Experimental findings from US5646136A, “Methods of inhibiting angiogenesis and tumor growth, and treating ophthalmologic conditions with angiostatic and therapeutic steroids” (Duke University, priority 1994, dated 1997) are described below.

Entries after “also recorded” stand apart in the source; their conditions may differ.

Data set [1] in a line: Body weight of rats treated topically in the corneal angiogenesis study. The class given is in vivo, rat. How it is done:
(§1) The ability of etianic acids to inhibit angiogenesis was evaluated in vivo in rats. Each animal had its corneas cauterized with silver nitrate/potassium nitrate. The cauterization causes the normally avascular cornea to undergo neovascularization (anglogenesis). This animal model, refined by Proia et al., Lab. Invest. 58: 473-479 (1988) and now a well-established assay, quantifies corneal neovascularization by computerized image analysis. […] Ophthalmol. Vis. Science 30: 1588-1593 (1989), and can provide a more definitive evaluation of angiostatic activity than models using the chorioallantoic membrane in the chick egg or the rabbit eye model. See Proia et al., Exp. Eye Res. (in press--to be published in Vol. 57 in 1993).
(§2) Female rats were obtained from Zivic-Miller Laboratories, Zelienople, Pa. There were 6-8 rats included in each treatment group. Neovascularization was induced by cauterizing both corneas of each anesthetized rat; this was performed by applying the tip of a silver nitrate/potassium nitrate to the cornea for 5-7.5 seconds.
(§3) Steroids were formulated in vehicle containing 10 percent Tween 20 (polyoxyethylene sorbitan monolaurate) dissolved in 0.9 percent saline with percent (by volume) 0.2M tris (hydroxymethyl)aminomethane, pH 7.4. The steroids dissolved readily when the pH was adjusted to 7.0-8.0 with NaOH or KOH. All steroids were tested at a concentration of 1 percent; additionally, some formulations were also tested at 0.01 percent, 0.1 percent, and 2.5 percent. Three 10 μl drops of each concentration of steroid were applied topically to each cauterized cornea four times per day (8:00 a.m., noon, 4:00 p.m., and 8:00 p.m.).
After four days of treatment, the animals were euthanized by rapid asphyxiation in a carbon dioxide chamber. The vasculature was perfused with a mixture of 10 percent india ink/11 percent gelatin/lactated Ringer's solution. […] After dehydration with alcohols, cleaning with xylene, mounting, and drying, the area of each cornea and the length of blood vessels were determined by computerized image analysis.

Data set [2] concerns corneal neovascularization. Description: Corneal angiogenesis inhibition, subcutaneous injection once/day. It counts as in vivo, rat. How it is done:
as §1, §2
(§4) After four days of treatment, the animals were euthanized by rapid asphyxiation in a carbon dioxide chamber. The vasculature was perfused with a mixture of 10 percent india ink/11 percent gelatin/lactated Ringer's solution. Corneal tissue was dissected and prepared as flat mounts. During dissection, the corneas were examined with a dissecting microscope, and the degree of neovascularization was graded numerically from 1+ to 4+. After dehydration with alcohols, cleaning with xylene, mounting, and drying, the area of each cornea and the length of blood vessels were determined by computerized image analysis.
The ability of compounds 2013, 518, and 513 to inhibit corneal angiogenesis when injected subcutaneously once/day to was assessed on rats prepared as described in Example 8. Dexamethasone was used as a positive control.

Another data set deals with thymus. Description: Thymus weight of rats treated topically in the corneal angiogenesis study. It counts as in vivo, rat. Here is the method:
as §1, §2, §3, §4

Data set [3] deals with corneal neovascularization. Nature of the data set: Inhibition of corneal neovascularization in cauterized rat corneas, topical application four times per day for four days. The class given is in vivo. On the set-up: Neovascularization (total length of blood vessels in the cornea): unit not given here. The conditions noted are these: for Inhibition of corneal vascularization (significance, in words): applied topically; for Corneal angiogenesis score / Neovascularization (total length of blood vessels in the cornea): mean ± S.D.; for Corneal angiogenesis score: subjective score 1+ to 4+; for Percent Inhibition of neovascularization (angiogenesis score) / Percent Inhibition (total vessel length): versus vehicle. How it is done: as §1, §2
The corneal tissues were treated with steroid formulations.
Steroids were formulated in vehicle containing 10 percent Tween 20 (polyoxyethylene sorbitan monolaurate) dissolved in 0.9 percent saline with percent (by volume) 0.2M tris (hydroxymethyl)aminomethane, pH 7.4. […] All steroids were tested at a concentration of 1 percent; additionally, some formulations were also tested at 0.01 percent, 0.1 percent, and 2.5 percent. Three 10 μl drops of each concentration of steroid were applied topically to each cauterized cornea four times per day (8:00 a.m., noon, 4:00 p.m., and 8:00 p.m.).
as §4
Statistical evaluation of inhibition of corneal neovascularization by each concentration of drug was evaluated using Mann Whitney U Tests (one-tailed; P<0.05=significant difference). […] In all cases, however, image analysis was used to quantitatively confirm visual observations.

For the next data set, the system named is glucocorticoid activity. Nature of the data set: Glucocorticoid activity (general statements).
For data set [4], the system named is human pancreatic HPAF cell line. Nature of the data set: Growth of human pancreatic HPAF tumor in nude mice. The class given is in vivo. How it is done: The HPAF tumor cell line is resistant to virtually all chemotherapeutic agents and grows rapidly in the nude mouse. Growth inhibition of this tumor for a period of time is thus indicative of significant anti-tumor activity.
Nude mice were implanted subcutaneously with 500,000 cells of the human pancreatic HPAF cell line. See Selvan et al., Drug Design and Discovery 9: […] (1992). Treatment with 9α-fluoro-11β-hydroxy-16β-methyl-1,4-androstadien-3-one 17β-carboxylic acid steroid (20 mg/kg subcutaneously in 90 percent propylene glycol-ethanol, injected twice daily 6 days per week) was commenced the following day and continued for one month. Growth of tumor was inhibited for about 3 weeks compared to controls. After this point, rapid growth ensued.

Take `C[C@@H]1C[C@H]2[C@@H]3CCC4=CC(=O)C=C[C@]4(C)[C@@]3(F)[C@@H](O)C[C@]2(C)[C@@]1(O)C(=O)CO` [dexamethasone, reference compound]: the “Body weight less than control rats” value in data set [1] (topical 0.1 percent, end of four days of treatment) stood at 17%. Moreover, in data set [2] (1 mg/kg/day subcutaneous), the Neovasc. is listed as 9.3 ± 2.2% and the “Reduction of corneal neovascularization versus vehicle” value is recorded as -39.6%. For the same compound, the “Reduction of thymus weight” value in the data set with thymus (topical 0.1 percent, similar experiment) came out at 75%.
On to `C[C@]12CCC(=O)C=C1CC[C@@H]1[C@@H]2[C@@H](O)C[C@@]2(C)[C@H]1CC[C@]2(O)C(=O)O` [Compound 323, 17β-carboxyl-11β,17α-dihydroxy-4-androsten-3-one], for which, in data set [3], the “Inhibition of corneal vascularization (significance, in words)” value (“Inhibition … (significance, in words)” below) is “did cause significant inhibition of corneal vascularization; also recorded: significantly suppressed”. The results for the Corneal angiogenesis score in data set [3] (topical 0.01%), in data set [3] (topical 0.1%) and in data set [3] (topical 1.0%) were 1.7 ± 1.1, 2.1 ± 0.5 and 1.3 ± 0.9, respectively. Moreover, in data set [3] (topical 1.0%), the “Percent Inhibition of neovascularization (angiogenesis score)” value (“Percent Inhibition of neovascularization” for short) is listed as 28%.
`C[C@]12C[C@](C)(O)[C@H]3[C@@H](CCC4=CC(=O)C=C[C@@]43C)[C@@H]1CC[C@@H]2O` [11β,17β-dihydroxy-11α-methyl-1,4-androstadien-3-one, reference compound]: the “Glucocorticoid activity (in words)” value with glucocorticoid activity is given as “anti-glucocorticoid”.
As to `C[C@]12CC[C@@H](O)CC1CC[C@@H]1[C@@H]2[C@@H](O)C[C@@]2(C)[C@H]1CC[C@]2(O)C(=O)O` (stereo partly drawn) [Compound 526, 17β-carboxyl-3α,11β,17α-trihydroxy-androstane], the “Inhibition … (significance, in words)” value in data set [3] is reported as “did not significantly inhibit corneal vascularization”.
On to `C[C@@H]1C[C@H]2[C@@H]3CCC4=CC(=O)C=C[C@]4(C)[C@@]3(F)[C@@H](O)C[C@]2(C)[C@@]1(O)C(=O)O` [Compound 518, 17β-carboxyl-11β,17α-dihydroxy-9α-fluoro-16α-methyl-1,4-androstadien-3-one], for which the “Inhibition … (significance, in words)” value in data set [3] is on record as “did not significantly inhibit corneal vascularization”. In data set [2] (10 mg/kg/day subcutaneous), this compound showed a Neovasc. of 15.7 ± 5.8%.
Turning to `C[C@@H]1C[C@H]2[C@@H]3C[C@H](F)C4=CC(=O)C=C[C@]4(C)[C@@]3(F)[C@@H](O)C[C@]2(C)[C@@]1(O)C(=O)O` [Compound 532, 6,9-difluoro-11β,17-dihydroxy-16α-methylpregna-1,4-diene-3-one-17β-carboxylic acid], the “Inhibition … (significance, in words)” value in data set [3] was “did cause significant inhibition of corneal vascularization; also recorded: ability of this compound to inhibit corneal neovascularization; also recorded: significant differences between vehicle and Compound 532 at all concentrations”. The “Neovascularization (total length of blood vessels in the cornea)” value in data set [3] (topical 0.01 percent) worked out at 355.4 ± 62.2; in data set [3] (topical 0.1 percent) it was 322.0 ± 78.0; in data set [3] (topical 1.0 percent), 202.2 ± 74.3. The “Percent Inhibition (total vessel length)” value in data set [3] (topical 0.01 percent) was 12.3%; in data set [3] (topical 0.1 percent) it was 20.6%; in data set [3] (topical 1.0 percent) it was 50.1%. Besides, in the data set on thymus (rat, in vivo), the “Thymus weight difference between vehicle- and drug-treated groups (in words)” value is “no significant difference between vehicle- and drug-treated groups”.
Take `C[C@]12CCC(=O)C=C1CC[C@@H]1[C@@H]2C(=O)C[C@@]2(C)[C@H]1CC[C@]2(O)C(=O)O` [Compound 527, 17β-carboxyl-17α-hydroxy-4-androsten-3,11-dione]: the “Inhibition … (significance, in words)” value in data set [3] is “did not significantly inhibit corneal vascularization”.
Same read-out and setting: with `C[C@]12CC[C@H]3[C@@H](CCC4=CC(=O)CC[C@@]43C)[C@@H]1CC[C@@H]2C(=O)O` [Compound 1000, 4-androsten-3-one-17β-carboxylic acid] the entry was “did not significantly inhibit corneal vascularization”.
Regarding `C=C1C[C@H]2[C@@H]3C=C(C)C4=CC(=O)C=C[C@]4(C)[C@H]3CC[C@]2(C)[C@@]1(OC(C)=O)C(C)=O` [1-dehydro melegesterol acetate, 17α-acetoxy-6-methyl-16-methylene-1,4,6-pregnatriene-3,20-dione], the “Glucocorticoid activity (in words)” value with glucocorticoid activity is “lacks glucocorticoid activity”.
Consider `C[C@H]1C[C@@H]2[C@H]([C@@H](O)C[C@@]3(C)[C@H]2CC[C@]3(O)C(=O)O)[C@@]2(C)C=CC(=O)C=C12` [Compound 517, 17β-carboxyl-11β,17α-dihydroxy-6α-methyl-1,4-androstadien-3-one], for which the “Inhibition … (significance, in words)” value in data set [3] is on record as “did not significantly inhibit corneal vascularization”.
Turning to `C[C@]12C[C@H](O)[C@H]3[C@@H](CCC4=CC(=O)CC[C@@]43C)[C@@H]1CC[C@@H]2C(=O)O` [Compound 525, 17β-carboxyl-11β-hydroxy-4-androsten-3one], the “Inhibition … (significance, in words)” value in data set [3] is given as “did not significantly inhibit corneal vascularization”.
On to “9α-fluoro-11β-hydroxy-16β-methyl-1,4-androstadien-3-one 17β-carboxylic acid”, for which the “Period for which growth of tumor was inhibited compared to controls” value in data set [4] (20 mg/kg subcutaneously twice daily 6 days per week, one month) is recorded as “about 3 weeks”.
Take `C[C@H]1C[C@H]2[C@@H]3CCC4=CC(=O)C=C[C@]4(C)[C@@]3(F)[C@@H](O)C[C@]2(C)[C@@]1(O)C(=O)O` [Compound 513, 17β-carboxyl-11β,17α-dihydroxy-9α-fluoro-16β-methyl-1,4-androstadien-3-one]: the “Degree of inhibition of corneal angiogenesis compared with dexamethasone” value in data set [3] (1 percent compound topical vs 0.1 percent dexamethasone sodium phosphate) is “appeared similar to that caused by topically applied 0.1 percent dexamethasone sodium phosphate”. Besides, the “Inhibition … (significance, in words)” value in data set [3] is recorded as “did cause significant inhibition of corneal vascularization”. For the same compound, in data set [3] (topical 0.01%), the Corneal angiogenesis score stood at 1.8 ± 0.4 and the “Percent Inhibition of neovascularization” value is recorded as 0%. For the same compound, in data set [3] (topical 0.1%), the Corneal angiogenesis score was 1.1 ± 0.9 and the “Percent Inhibition of neovascularization” value came out at 39%. In data set [3] (topical 1.0%), the Corneal angiogenesis score came to 0.4 ± 0.4 and the “Percent Inhibition of neovascularization” value amounted to 78%. Further, in data set [1] (rat, in vivo), the “Loss of body weight (in words)” value is listed as “no significant loss of body weight”. Further, in data set [2] (10 mg/kg/day subcutaneous), the Neovasc. was 8.2 ± 1.1% and the “Reduction of corneal neovascularization versus vehicle” value is recorded as -46.7%. Moreover, in the data set with thymus (rat, in vivo), the “Change in thymus weight (in words)” value is “did not cause any significant change in thymus weight”, the “Decrease of thymus weight from control” value was determined as 45% and the Thymus weight is 0.187±0.042 gm. Also, the “Growth of HPAF tumor (in words)” value in data set [4] (nude mice) is listed as “inhibits growth of the human HPAF pancreatic tumor in nude mice”.
